Usually IC50 stands for the midpoint of a concentration-inhibition curve.

Our source for the IC50 values is patent US20250179103A1, “6-OXODECAHYDROPYRROLO[1,2-A][1,5]DIAZOCINE AND 6-OXODECAHYDRO-4H-PYRROLO[2,1-D][1,5]THIAZOCINE DERIVATIVES AS STAT3 AND STAT6 MODULATORS FOR THE TREATMENT OF CANCER AND INFLAMMATORY CONDITIONS” (Recludix Pharma, Inc., priority 2022, published 2025).

In assay [1] the target is T1, Recombinant STAT3 protein (STAT3(G127-I722)) (Homo sapiens, UniProt P40763).
T1 construct: Recombinant STAT3 protein (STAT3(G127-I722))
As to the kind of experiment: STAT3 Fluorescence Polarization (FP) Assay. The format is binding. The conditions noted are these: STAT3(G127-I722) 25 nM, probe 5-FAM-GpYLPQTV-NH2 2 nM, 45-minute incubation. A digest of the protocol: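 STAT3(G127-I722), 25 nM, was mixed with 2 nM 5-FAM-GpYLPQTV-NH2 probe in HEPES pH 7.4 buffer with 1% DMSO and serially diluted compound. FP (mP) was read after 45 min at room temperature. IC50 came from nonlinear regression.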
(Polarisation of emitted light reports the rotation of a fluorescent probe.)

Assay [2] deals with T2, Recombinant STAT6 protein (STAT6(W123-T658)) (Homo sapiens, UniProt P42226).
T2 construct: Recombinant STAT6 protein (STAT6(W123-T658))
T2 sequence (P42226 123-658): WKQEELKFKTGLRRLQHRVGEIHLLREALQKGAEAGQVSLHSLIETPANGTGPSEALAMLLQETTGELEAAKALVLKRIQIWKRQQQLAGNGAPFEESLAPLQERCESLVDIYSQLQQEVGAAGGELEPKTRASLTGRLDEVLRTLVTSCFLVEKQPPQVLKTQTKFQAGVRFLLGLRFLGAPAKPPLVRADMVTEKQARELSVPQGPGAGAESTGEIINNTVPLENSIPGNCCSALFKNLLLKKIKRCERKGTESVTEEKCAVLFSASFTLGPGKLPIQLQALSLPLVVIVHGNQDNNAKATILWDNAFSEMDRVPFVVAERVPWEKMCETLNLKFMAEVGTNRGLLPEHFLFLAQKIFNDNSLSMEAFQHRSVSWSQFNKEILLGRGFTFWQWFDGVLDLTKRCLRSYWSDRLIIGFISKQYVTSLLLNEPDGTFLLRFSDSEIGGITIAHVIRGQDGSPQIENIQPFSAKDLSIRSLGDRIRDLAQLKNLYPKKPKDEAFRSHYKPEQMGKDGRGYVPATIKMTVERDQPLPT
As to the kind of experiment: STAT6 Fluorescence Polarization (FP) Assay. The assay is classed as binding. As to conditions: STAT6(W123-T658) 250 nM, probe 5-FAM-ApYKPFQDLI-NH2 2 nM, 45-minute incubation. A digest of the protocol: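 Displacement of a fluorescent phosphotyrosine peptide (5-FAM-ApYKPFQDLI-NH2, 2 nM) from STAT6(W123-T658) (250 nM), 1% DMSO, pH 7.4 HEPES buffer. After 45 min at room temperature, polarization (mP) was plotted versus log compound concentration and fitted by nonlinear regression to give IC50.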

SMILES strings stand for the structures.

T1 sequence (P40763 127-722): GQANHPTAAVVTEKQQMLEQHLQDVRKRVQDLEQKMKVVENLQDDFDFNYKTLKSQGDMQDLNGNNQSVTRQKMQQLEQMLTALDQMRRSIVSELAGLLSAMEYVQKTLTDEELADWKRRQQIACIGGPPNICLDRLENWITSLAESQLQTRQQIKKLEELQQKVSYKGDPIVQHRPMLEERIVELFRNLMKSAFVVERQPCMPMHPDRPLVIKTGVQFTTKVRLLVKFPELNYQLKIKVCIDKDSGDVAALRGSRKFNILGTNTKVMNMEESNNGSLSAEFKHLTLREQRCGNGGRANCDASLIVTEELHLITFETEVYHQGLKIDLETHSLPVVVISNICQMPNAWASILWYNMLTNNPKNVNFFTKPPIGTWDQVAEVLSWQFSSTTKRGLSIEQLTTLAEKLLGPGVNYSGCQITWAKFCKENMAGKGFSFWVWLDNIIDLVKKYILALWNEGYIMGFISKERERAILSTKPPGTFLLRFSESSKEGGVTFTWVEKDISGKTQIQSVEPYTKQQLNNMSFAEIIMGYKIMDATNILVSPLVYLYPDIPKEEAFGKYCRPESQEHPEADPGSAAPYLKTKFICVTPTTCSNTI

Turning to `COc1ccccc1N(C)C(=O)[C@@H]1CC[C@@H]2CCN(C(C)=O)C[C@H](NC(=O)c3cc4cc(C(F)(F)P(=O)(O)O)ccc4[nH]3)C(=O)N21` [Compound 164, ((2-(((5S,8S,10aR)-3-acetyl-8-((2-methoxyphenyl)(methyl)carbamoyl)-6-oxodecahydropyrrolo[1,2-a][1,5]diazocin-5-yl)carbamoyl)-1H-indol-5-yl)difluoromethyl)phosphonic acid], the IC50 in assay [1] was in the range of 1000 to 10000 nM; in assay [2], 300 to 3000 nM.
As for `COc1cccc(N(C)C(=O)[C@@H]2CC[C@@H]3CCN(C(C)=O)C[C@H](NC(=O)c4cc5cc(C(F)(F)P(=O)(O)O)ccc5[nH]4)C(=O)N32)c1` [Compound 165, ((2-(((5S,8S,10aR)-3-acetyl-8-((3-methoxyphenyl)(methyl)carbamoyl)-6-oxodecahydropyrrolo[1,2-a][1,5]diazocin-5-yl)carbamoyl)-1H-indol-5-yl)difluoromethyl)phosphonic acid], the values for the IC50 in assay [1] and in assay [2] were 1000 to 10000 nM and 300 to 3000 nM, respectively.
The matching figures for `COc1ccc(N(C)C(=O)[C@@H]2CC[C@@H]3CCN(C(C)=O)C[C@H](NC(=O)c4cc5cc(C(F)(F)P(=O)(O)O)ccc5[nH]4)C(=O)N32)cc1` [Compound 166, ((2-(((5S,8S,10aR)-3-acetyl-8-((4-methoxyphenyl)(methyl)carbamoyl)-6-oxodecahydropyrrolo[1,2-a][1,5]diazocin-5-yl)carbamoyl)-1H-indol-5-yl)difluoromethyl)phosphonic acid]: 1000 to 10000 nM and 300 to 3000 nM.
For `CC(=O)N1CC[C@H]2CC[C@@H](C(=O)N(C)c3cccc(C#N)c3)N2C(=O)[C@@H](NC(=O)c2cc3cc(C(F)(F)P(=O)(O)O)ccc3[nH]2)C1` [Compound 167, ((2-(((5S,8S,10aR)-3-acetyl-8-((3-cyanophenyl)(methyl)carbamoyl)-6-oxodecahydropyrrolo[1,2-a][1,5]diazocin-5-yl)carbamoyl)-1H-indol-5-yl)difluoromethyl)phosphonic acid] the same measures were 1000 to 10000 nM and 300 to 3000 nM.
The matching figures for `CC(=O)N1CC[C@H]2CC[C@@H](C(=O)N(C)c3ccc(C#N)cc3)N2C(=O)[C@@H](NC(=O)c2cc3cc(C(F)(F)P(=O)(O)O)ccc3[nH]2)C1` [Compound 168, ((2-(((5S,8S,10aR)-3-acetyl-8-((4-cyanophenyl)(methyl)carbamoyl)-6-oxodecahydropyrrolo[1,2-a][1,5]diazocin-5-yl)carbamoyl)-1H-indol-5-yl)difluoromethyl)phosphonic acid]: 1000 to 10000 nM and 300 to 3000 nM.
Turning to `CCN(C(=O)[C@@H]1CC[C@@H]2CCN(C(C)=O)C[C@H](NC(=O)c3cc4cc(C(F)(F)P(=O)(O)O)ccc4[nH]3)C(=O)N21)c1ccccc1` [Compound 169, ((2-(((5S,8S,10aR)-3-acetyl-8-(ethyl(phenyl)carbamoyl)-6-oxodecahydropyrrolo[1,2-a][1,5]diazocin-5-yl)carbamoyl)-1H-indol-5-yl)difluoromethyl)phosphonic acid], the half-inhibitory concentration (IC50) in assay [1] lay in the range of 1000 to 10000 nM; in assay [2], 300 to 3000 nM.
Consider `CC(=O)N1CC(N(C)C(=O)[C@@H]2CC[C@@H]3CCN(C(C)=O)C[C@H](NC(=O)c4cc5cc(C(F)(F)P(=O)(O)O)ccc5[nH]4)C(=O)N32)C1` [Compound 170, ((2-(((5S,8S,10aR)-3-acetyl-8-((1-acetylazetidin-3-yl)(methyl)carbamoyl)-6-oxodecahydropyrrolo[1,2-a][1,5]diazocin-5-yl)carbamoyl)-1H-indol-5-yl)difluoromethyl)phosphonic acid], for which the figures for the IC50 in assay [1] and in assay [2] were 1000 to 10000 nM and 300 to 3000 nM, respectively.
The matching figures for `CC(=O)N1CC(N(C)C(=O)[C@@H]2CC[C@@H]3CCN(C(C)=O)C[C@H](NC(=O)c4cc5cc(C(F)(F)P(=O)(O)O)ccc5s4)C(=O)N32)C1` [Compound 171, ((2-(((5S,8S,10aR)-3-acetyl-8-((1-acetylazetidin-3-yl)(methyl)carbamoyl)-6-oxodecahydropyrrolo[1,2-a][1,5]diazocin-5-yl)carbamoyl)benzo[b]thiophen-5-yl)difluoromethyl)phosphonic acid]: 1000 to 10000 nM and 300 to 3000 nM.
For `CC(=O)N1CC[C@H]2CC[C@@H](C(=O)Nc3ccc4ncncc4c3)N2C(=O)[C@@H](NC(=O)c2cc3cc(C(F)(F)P(=O)(O)O)ccc3s2)C1` [Compound 172, ((2-(((5S,8S,10aR)-3-acetyl-6-oxo-8-(quinazolin-6-ylcarbamoyl)decahydropyrrolo[1,2-a][1,5]diazocin-5-yl)carbamoyl)benzo[b]thiophen-5-yl)difluoromethyl)phosphonic acid] the same measures were 1000 to 10000 nM and 300 to 3000 nM.
For `CC(=O)N1CC[C@H]2CC[C@@H](C(=O)Nc3ccc4ccccc4c3)N2C(=O)[C@@H](NC(=O)c2cc3cc(C(F)(F)P(=O)(O)O)ccc3s2)C1` [Compound 173, ((2-(((5S,8S,10aR)-3-acetyl-8-(naphthalen-2-ylcarbamoyl)-6-oxodecahydropyrrolo[1,2-a][1,5]diazocin-5-yl)carbamoyl)benzo[b]thiophen-5-yl)difluoromethyl)phosphonic acid] the same measures were 100 to 1000 nM and 300 to 3000 nM.
On to `CC(=O)N1CC[C@H]2CC[C@@H](C(=O)Nc3ccc4nnccc4c3)N2C(=O)[C@@H](NC(=O)c2cc3cc(C(F)(F)P(=O)(O)O)ccc3s2)C1` [Compound 174, ((2-(((5S,8S,10aR)-3-acetyl-8-(cinnolin-6-ylcarbamoyl)-6-oxodecahydropyrrolo[1,2-a][1,5]diazocin-5-yl)carbamoyl)benzo[b]thiophen-5-yl)difluoromethyl)phosphonic acid], for which the IC50 in assay [1] was 100 to 1000 nM; in assay [2], at most 300 nM.
The matching figures for `CC(=O)N1CC[C@H]2CC[C@@H](C(=O)Nc3ccc4[nH]ncc4c3)N2C(=O)[C@@H](NC(=O)c2cc3cc(C(F)(F)P(=O)(O)O)ccc3s2)C1` [Compound 175, ((2-(((5S,8S,10aR)-8-((1H-indazol-5-yl)carbamoyl)-3-acetyl-6-oxodecahydropyrrolo[1,2-a][1,5]diazocin-5-yl)carbamoyl)benzo[b]thiophen-5-yl)difluoromethyl)phosphonic acid]: 100 to 1000 nM and 300 to 3000 nM.
Turning to `CC(=O)N1CC[C@H]2CC[C@@H](C(=O)Nc3ccc(-c4ccccc4)cc3CC#N)N2C(=O)[C@@H](NC(=O)c2cc3cc(C(F)(F)P(=O)(O)O)ccc3s2)C1` [Compound 176, ((2-(((5S,8S,10aR)-3-acetyl-8-((3-(cyanomethyl)-[1,1′-biphenyl]-4-yl)carbamoyl)-6-oxodecahydropyrrolo[1,2-a][1,5]diazocin-5-yl)carbamoyl)benzo[b]thiophen-5-yl)difluoromethyl)phosphonic acid], the values for the IC50 in assay [1] and in assay [2] were 100 to 1000 nM and 300 to 3000 nM, respectively.
The matching figures for `CC(=O)N1CC[C@H]2CC[C@@H](C(=O)Nc3ccc(-c4ccccc4)cc3CC(N)=O)N2C(=O)[C@@H](NC(=O)c2cc3cc(C(F)(F)P(=O)(O)O)ccc3s2)C1` [Compound 177, ((2-(((5S,8S,10aR)-3-acetyl-8-((3-(2-amino-2-oxoethyl)-[1,1′-biphenyl]-4-yl)carbamoyl)-6-oxodecahydropyrrolo[1,2-a][1,5]diazocin-5-yl)carbamoyl)benzo[b]thiophen-5-yl)difluoromethyl)phosphonic acid]: at most 100 nM and 300 to 3000 nM.
The matching figures for `CC(=O)N1CC[C@H]2CC[C@@H](C(=O)Nc3ccc(-c4ccccc4)cc3[N+](=O)[O-])N2C(=O)[C@@H](NC(=O)c2cc3cc(C(F)(F)P(=O)(O)O)ccc3s2)C1` [Compound 178]: 100 to 1000 nM and 300 to 3000 nM.
Turning to `CC(=O)N1CC[C@H]2CC[C@@H](C(=O)Nc3ccc(-c4ccccc4)c([N+](=O)[O-])c3)N2C(=O)[C@@H](NC(=O)c2cc3cc(C(F)(F)P(=O)(O)O)ccc3s2)C1` [Compound 179, ((2-(((5S,8S,10aR)-3-acetyl-8-((2-nitro-[1,1′-biphenyl]-4-yl)carbamoyl)-6-oxodecahydropyrrolo[1,2-a][1,5]diazocin-5-yl)carbamoyl)benzo[b]thiophen-5-yl)difluoromethyl)phosphonic acid], the values for the concentration for half-maximal inhibition (IC50) in assay [1] and in assay [2] were 100 to 1000 nM and 300 to 3000 nM, respectively.
